Data as given in PubChem BioAssay AID180 (DTP/NCI, 2004).
“And” between values parts separate entries of the source, which are not always exact repeats. Equal entries are not always repeated.

Test system: BDF1 mice, Adenocarcinoma 755 s.c., tumor weight T/C
Test: NCI In Vivo Anticancer Drug Screen. Data for tumor model Adenocarcinoma 755 (subcutaneous) in B6D2F1 (BDF1) mice
Conditions: endpoint: mean tumor weight, higher = larger tumour
Description: The antitumor activity of compounds was measured in mice bearing transplantable tumors. Survival or tumor size were measured and the results are expressed as the measurement made in the treated group (T) divided by the measurement made in the vehicle treated control group (C). The tumor model used in this assay is Adenocarcinoma 755 (subcutaneous) in B6D2F1 (BDF1) mice

[1] = dose: 25.0 mg/kg/injection, schedule: Q01DX011 (ip), vehicle: methylcellulose (MC)
[2] = dose: 75.0 mg/kg/injection, schedule: Q01DX011 (ip), vehicle: methylcellulose (MC)
[3] = dose: 225.0 mg/kg/injection, schedule: Q01DX011 (ip), vehicle: methylcellulose (MC)
[4] = dose: 6.25 mg/kg/injection, schedule: Q01DX011 (ip), vehicle: methylcellulose (MC)
[5] = dose: 12.5 mg/kg/injection, schedule: Q01DX011 (ip), vehicle: methylcellulose (MC)
[6] = dose: 25.0 mg/kg/injection, schedule: Q01DX011 (ip), vehicle: carboxymethylcellulose (CMC)
[7] = dose: 50.0 mg/kg/injection, schedule: Q01DX011 (ip), vehicle: carboxymethylcellulose (CMC)
[8] = dose: 100.0 mg/kg/injection, schedule: Q01DX011 (ip), vehicle: carboxymethylcellulose (CMC)
[9] = dose: 60.0 mg/kg/injection, schedule: Q01DX011 (ip), vehicle: carboxymethylcellulose (CMC)
[10] = dose: 30.0 mg/kg/injection, schedule: Q01DX011 (ip), vehicle: carboxymethylcellulose (CMC)
[11] = dose: 120.0 mg/kg/injection, schedule: Q01DX011 (ip), vehicle: carboxymethylcellulose (CMC)
[12] = dose: 240.0 mg/kg/injection, schedule: Q01DX011 (ip), vehicle: carboxymethylcellulose (CMC)
[13] = dose: 12.0 mg/kg/injection, schedule: Q01DX011 (ip), vehicle: methylcellulose (MC)
[14] = dose: 12.5 mg/kg/injection, schedule: Q01DX011 (ip), vehicle: carboxymethylcellulose (CMC)
[15] = dose: 50.0 mg/kg/injection, schedule: Q01DX011 (ip), vehicle: methylcellulose (MC)
[16] = dose: 125.0 mg/kg/injection, schedule: Q01DX011 (ip), vehicle: carboxymethylcellulose (CMC)
[17] = dose: 250.0 mg/kg/injection, schedule: Q01DX011 (ip), vehicle: carboxymethylcellulose (CMC)

In the case of `CSc1ncnc2c1ncn2C1CCCS1` (stereo not given), the T/C [1] is reported as 61 % of control, the T/C [2] is reported as 66 % of control and the T/C [3] is reported as 54 % of control.

In the case of `CCCNc1ncnc2c1cnn2C`, the T/C (dose: 3.12 mg/kg/injection, schedule: Q01DX011 (ip), vehicle: methylcellulose (MC)) is reported as 84 % of control, the T/C (dose: 3.12 mg/kg/injection, schedule: Q01DX011 (ip), vehicle: saline) is reported as 101 % of control and the T/C [4] is reported as 80 % of control. For the same compound, the T/C (dose: 6.25 mg/kg/injection, schedule: Q01DX011 (ip), vehicle: saline) was 86 % of control, the T/C [5] was 32 % of control and the T/C (dose: 12.5 mg/kg/injection, schedule: Q01DX011 (ip), vehicle: saline) was 19 % of control. The T/C (dose: 25.0 mg/kg/injection, schedule: Q01DX011 (ip), vehicle: saline) was 8 % of control.

In the case of `S=c1[nH]c(=S)c2[nH]cnc2[nH]1`, the T/C [6] is reported as 84 % of control, the T/C [7] is reported as 58 % of control and the T/C [8] is reported as 31 % of control.

With `O=C1C(=O)C(Cl)=C(Cl)C(Cl)=C1Cl` the T/C (dose: 7.5 mg/kg/injection, schedule: Q01DX011 (ip), vehicle: carboxymethylcellulose (CMC)) was 78 % of control, the T/C (dose: 15.0 mg/kg/injection, schedule: Q01DX011 (ip), vehicle: carboxymethylcellulose (CMC)) was 90 % of control and the T/C [9] was 97 % of control.

In the case of `CCCCn1nnc2c(N)nc(N)nc21`, the T/C (dose: 62.0 mg/kg/injection, schedule: Q01DX011 (ip), vehicle: methylcellulose (MC)) is reported as 123 % of control, the T/C (dose: 125.0 mg/kg/injection, schedule: Q01DX011 (ip), vehicle: methylcellulose (MC)) is reported as 70 % of control and the T/C [3] is reported as 56 % of control.

For `CN(Cc1cnc2nc(NCNC(=O)C3=C(O)[C@@]4(O)C(=O)C5=C(O)c6c(O)cccc6[C@@](C)(O)[C@H]5C[C@H]4[C@H](N(C)C)C3=O)nc(N)c2n1)c1ccc(C(=O)NC(CCC(=O)O)C(=O)O)cc1` (stereo not given in full), the T/C (dose: 1.5 mg/kg/injection, schedule: Q01DX011 (ip), vehicle: saline) was 109 % of control, the T/C (dose: 3.0 mg/kg/injection, schedule: Q01DX011 (ip), vehicle: saline) was 103 % of control and the T/C (dose: 6.0 mg/kg/injection, schedule: Q01DX011 (ip), vehicle: saline) was 69 % of control.

For `CC(=O)OCC1OC(n2cnc3c(Cl)nc(Cl)nc32)C(OC(C)=O)C1OC(C)=O` (stereo not given), the T/C [10] was 85 % of control, the T/C [9] was 92 % of control and the T/C [11] was 61 % of control. The T/C [12] was 61 % of control.

In the case of `CCc1nc(N)nc(N)c1-c1ccc(Cl)cc1`, the T/C (dose: 3.0 mg/kg/injection, schedule: Q01DX011 (ip), vehicle: methylcellulose (MC)) is reported as 52 % of control, the T/C (dose: 6.0 mg/kg/injection, schedule: Q01DX011 (ip), vehicle: methylcellulose (MC)) is reported as 38 % of control and the T/C (dose: 6.25 mg/kg/injection, schedule: Q01DX011 (ip), vehicle: carboxymethylcellulose (CMC)) is reported as 77 % of control. For the same compound, the T/C (dose: 11.85 mg/kg/injection, schedule: Q01DX011 (ip), vehicle: carboxymethylcellulose (CMC)) was 82 % of control, the T/C [13] was 49 % of control and the T/C [14] was 99 % of control. For the same compound, the T/C (dose: 23.7 mg/kg/injection, schedule: Q01DX011 (ip), vehicle: carboxymethylcellulose (CMC)) was 116 % of control, the T/C [6] was 115 % of control and the T/C [1] was 62 % of control. For the same compound, the T/C (dose: 47.4 mg/kg/injection, schedule: Q01DX011 (ip), vehicle: carboxymethylcellulose (CMC)) was 105 % of control, the T/C [7] was 72 % of control and the T/C [15] was 71 % of control. The T/C (dose: 62.5 mg/kg/injection, schedule: Q01DX011 (ip), vehicle: methylcellulose (MC)) was 43 % of control.

With `CCCCn1cnc2c(SCC(=O)O)nc(N)nc21` the T/C [1] was 54 % of control, the T/C (dose: 80.0 mg/kg/injection, schedule: Q01DX011 (ip), vehicle: methylcellulose (MC)) was 58 % of control and the T/C (dose: 250.0 mg/kg/injection, schedule: Q01DX011 (ip), vehicle: methylcellulose (MC)) was 69 % of control.

With `CCC(C)Sc1nc(N)nc2c1ncn2C1OC(CO)C(O)C1O` (stereo not given) the T/C (dose: 200.0 mg/kg/injection, schedule: Q01DX011 (ip), vehicle: carboxymethylcellulose (CMC)) was 2 % of control and the T/C (dose: 300.0 mg/kg/injection, schedule: Q01DX011 (ip), vehicle: carboxymethylcellulose (CMC)) was 2 % of control.

With `Nc1ncc(N)c(N)n1` the T/C [10] was 89 % of control, the T/C [9] was 116 % of control and the T/C [11] was 111 % of control. For the same compound, the T/C [12] was 96 % of control.

In the case of `S=c1nc[nH]c2c1ncn2C1CC1`, the T/C (dose: 31.0 mg/kg/injection, schedule: Q01DX011 (ip), vehicle: carboxymethylcellulose (CMC)) is reported as 86 % of control, the T/C (dose: 62.0 mg/kg/injection, schedule: Q01DX011 (ip), vehicle: carboxymethylcellulose (CMC)) is reported as 89 % of control and the T/C [16] is reported as 86 % of control. For the same compound, the T/C [17] was 33 % of control and the T/C (dose: 500.0 mg/kg/injection, schedule: Q01DX011 (ip), vehicle: carboxymethylcellulose (CMC)) was 59 % of control.

With `CN(C)c1ncnc2c1ncn2C1CCCCO1` (stereo not given) the T/C (dose: 11.0 mg/kg/injection, schedule: Q01DX011 (ip), vehicle: methylcellulose (MC)) was 70 % of control, the T/C (dose: 22.5 mg/kg/injection, schedule: Q01DX011 (ip), vehicle: methylcellulose (MC)) was 47 % of control and the T/C (dose: 45.0 mg/kg/injection, schedule: Q01DX011 (ip), vehicle: methylcellulose (MC)) was 47 % of control. For the same compound, the T/C (dose: 90.0 mg/kg/injection, schedule: Q01DX011 (ip), vehicle: methylcellulose (MC)) was 20 % of control.

In the case of `CCOC(=O)CCCc1ccc(N=NN(C)CC(C)C)cc1`, the T/C [16] is reported as 47 % of control and the T/C [17] is reported as 28 % of control.

With `C/C(=N\NC(=O)c1ccncc1)c1cccc(Cl)c1` the T/C (dose: 7.5 mg/kg/injection, schedule: Q01DX011 (ip), vehicle: methylcellulose (MC)) was 47 % of control and 50 % of control and the T/C (dose: 30.0 mg/kg/injection, schedule: Q01DX011 (ip), vehicle: methylcellulose (MC)) was 31 % of control.

In the case of `CN(C)c1nc(N)nc(Nc2ccc(Br)cc2)c1N=O`, the T/C [14] is reported as 40 % of control and the T/C [6] is reported as 51 % of control.

For `O=C(CCBr)NCCCNC(=O)CCBr`, the T/C [1] was 54 % of control and the T/C [2] was 37 % of control.

For `Nc1ccc2cc3ccccc3cc2c1`, the T/C (dose: 10.0 mg/kg/injection, schedule: Q01DX011 (ip), vehicle: saline) was 80 % of control, the T/C (dose: 10.5 mg/kg/injection, schedule: Q01DX011 (ip), vehicle: carboxymethylcellulose (CMC)) was 62 % of control and the T/C (dose: 21.0 mg/kg/injection, schedule: Q01DX011 (ip), vehicle: carboxymethylcellulose (CMC)) was 40 % of control. The T/C (dose: 21.0 mg/kg/injection, schedule: Q01DX011 (ip), vehicle: saline) was 41 % of control, the T/C (dose: 42.0 mg/kg/injection, schedule: Q01DX011 (ip), vehicle: saline) was 37 % of control and the T/C (dose: 84.0 mg/kg/injection, schedule: Q01DX011 (ip), vehicle: saline) was 29 % of control.

With `Nc1nc2nc(/N=N/SCCO)[nH]c2c(=O)[nH]1` the T/C [1] was 65 % of control and the T/C [15] was 39 % of control.

`CS(=O)(=O)OCCC(=O)N1CCC(CCC2CCN(C(=O)CCOS(C)(=O)=O)CC2)CC1` was tested, and the T/C [1] was 79 % of control, the T/C [2] was 63 % of control and the T/C [3] was 81 % of control.

`Cc1nc(Cl)c(C#N)c(C(F)(F)F)c1N` was tested, and the T/C [8] was 153 % of control.

With `CCC(C)Cn1cnc2c(=S)nc(N)[nH]c21` (stereo not given) the T/C (dose: 15.0 mg/kg/injection, schedule: Q01DX011 (ip), vehicle: methylcellulose (MC)) was 2 % of control.

`CSc1nc(Cl)c(Br)c(Sc2nc(N)nc3nc[nH]c23)n1` was tested, and the T/C [4] was 39 % of control, the T/C (dose: 12.0 mg/kg/injection, schedule: Q01DX011 (ip), vehicle: carboxymethylcellulose (CMC)) was 59 % of control and the T/C [13] was 29 % of control. The T/C [5] was 27 % of control, the T/C [6] was 28 % of control and the T/C [1] was 33 % of control and 48 % of control. The T/C [7] was 5 % of control, the T/C [15] was 42 % of control and the T/C (dose: 100.0 mg/kg/injection, schedule: Q01DX011 (ip), vehicle: methylcellulose (MC)) was 7 % of control.

`C[C@]12CC[C@H](O)C[C@H]1CC[C@@H]1[C@@H]2CC[C@]2(C)[C@@H](C3=CC(=O)OC3)[C@@H](O)C[C@]12O` was tested, and the T/C (dose: 3.0 mg/kg/injection, schedule: Q01DX011 (sc), vehicle: steriod suspending solution) was 91 % of control, the T/C (dose: 25.0 mg/kg/injection, schedule: Q01DX011 (sc), vehicle: steriod suspending solution) was 80 % of control and the T/C (dose: 50.0 mg/kg/injection, schedule: Q01DX011 (sc), vehicle: steriod suspending solution) was 110 % of control.
